The text below walks through data of patent US20150291610A1, “C20' Urea Derivatives of Vinca Alkaloids” (THE SCRIPPS RESEARCH INSTITUTE, priority 2012, published 2015).

Read-outs that look alike come from different tables or passages of the source.

The test system of data set [1] is HCT116 (human colorectal carcinoma) cells. The settings on record: reported in Leggans et al., Org. Lett. 2012; cited from earlier work.
The test system is the same in data set [2]. Briefly: Cell growth inhibition assay, HCT116. The format is cell-based. As to the method:
(§1) A population of cells (>1×10^6 cells/mL as determined with a hemocytometer) was diluted with an appropriate amount of Dulbecco-modified Eagle Medium (DMEM, Gibco) containing 10% fetal bovine serum (FBS, Gibco) to a final concentration of 30,000 cells/mL.
(§2) To each well of a 96-well plate (Corning Costar), 100 μL of the cell-media solution was added with a multichannel pipette. The cultures were incubated at 37° C. in an atmosphere of 5% CO2 and 95% humidified air for 24 hours. The test compounds were added to the plate as follows: test substances were diluted in DMSO to a concentration of 1 mM and 10-fold serial dilutions were performed on a separate 96-well plate. Fresh culture medium (100 μL) was added to each well of cells to constitute 200 μL of medium per well followed by 2 μL of each test agent. Compounds were tested in duplicate (n=2-8 times) at six concentrations between 0-1,000 nM or 0-10,000 nM. Following addition, cultures were incubated for an additional 72 hours.
(§3) The plates were incubated at 37° C. for either 5 minutes (L1210) or 15 minutes (HCT116 and HCT116/VM46).

The test system of data set [3] is HCT116/VM46 (vinblastine-resistant strain of HCT116, Pgp over-expression) cells. Put plainly: Cell growth inhibition assay, HCT116/VM46. As to the method: as §1, §2, §3
Data set [4] shares this test system. Conditions: read-out: IC50 (nM) HCT116/VM46; reported in Leggans et al., Org. Lett. 2012; cited from earlier work.
Data set [5] concerns L1210 (mouse lymphocytic leukemia) cells. Conditions: reported in Leggans et al., Org. Lett. 2012; cited from earlier work.
The test system is the same in data set [6]. Briefly: Cell growth inhibition assay, L1210. Type of data set: cell-based. Conditions: L1210 murine leukemia cell line; avg of 4-16 determinations. The procedure: as §1, §2, §3
A further data set concerns the target T1, porcine tubulin (Sus scrofa, UniProt P02550+P02554).
T1 construct: purified porcine tubulin; purchased Cytoskeleton, Inc
The format is binding. The settings on record: for tubulin binding affinity compared with vinblastine: in words. From the text:
[Owellen et al., Biochem. Pharmacol. 1977 26:1213-1219.] […] Millipore Steriflip® filter units were used to wash the filter paper with buffer under mild suction.

Data set [7] relates to ZR-75-1 (Breast, overexpression of her2). Briefly: 15-cell line panel: ZR-75-1. The format is cell-based, human. Conditions: independent laboratory panel.
Data set [8] has as its system SW403 (Colon, KRAS^G12V mutation). Put plainly: 15-cell line panel: SW403. The format is cell-based, human. Conditions: independent laboratory panel.
The subject of a further data set is HCT116 (Colon). Put plainly: 15-cell line panel: HCT116. Type of data set: cell-based, human. The settings on record: independent laboratory panel.
Data set [9] concerns AU565 (Breast, overexpression of her2/neu). Briefly: 15-cell line panel, independent laboratory: AU565. The format is cell-based, human.
Data set [10] concerns human tumor 15-cell line panel. Briefly: Human tumor 15-cell line panel, whole panel (averages, ranges). Type of data set: cell-based.
For data set [11], the system named is PA-1 (Ovary, overexpression of AIB1). Briefly: 15-cell line panel: PA-1. Type of data set: cell-based, human. Conditions: independent laboratory panel.
Data set [12] has as its system HCT116/VM46 (Colon, vinblastine resistant). Briefly: 15-cell line panel: HCT116/VM46. The format is cell-based, human. The settings on record: independent laboratory panel; > = highest concentration tested.
For data set [13], the system named is MDA-MB-468 (Breast, triple negative, amplified EGFR). Briefly: 15-cell line panel: MDA-MB-468. The format is cell-based, human. Conditions: independent laboratory panel.
The next data set concerns LNCaP-FGC (Prostate). Put plainly: 15-cell line panel: LNCaP-FGC. Conditions: independent laboratory panel. The format is cell-based, human.
The test system of data set [14] is HCC1143 (Breast, triple negative). Briefly: 15-cell line panel: HCC1143. Type of data set: cell-based, human. The settings on record: independent laboratory panel.
In data set [15] the test system is MCF-7 (Breast, overexpression of her2/neu). Put plainly: 15-cell line panel: MCF-7. The format is cell-based, human. The settings on record: independent laboratory panel; > = highest concentration tested.
For a further data set, the system named is NCI-H520 (Lung). Briefly: 15-cell line panel: NCI-H520. Conditions: independent laboratory panel. Type of data set: cell-based, human.
Data set [16] has as its system T47D (Breast, mutant p53). Put plainly: 15-cell line panel: T47D. Type of data set: cell-based, human. Conditions: independent laboratory panel.
Data set [17] relates to HCC70 (Breast, overexpression of p53). Briefly: 15-cell line panel: HCC70. Type of data set: cell-based, human. The settings on record: independent laboratory panel.
The subject of data set [18] is KPL4 (Breast, overexpression of erbB2). Put plainly: 15-cell line panel: KPL4. The format is cell-based, human. Conditions: independent laboratory panel.
Data set [19] has as its system LS174T (Colon, high levels of MUC2 mRNA). Briefly: 15-cell line panel: LS174T. Type of data set: cell-based, human. The settings on record: independent laboratory panel.
The mark [20] stands for this setting: HCT116 human colon cancer cell line, avg of 4-16 determinations, read-out: IC50 (nM) HCT116.
Where [21] appears, read: read-out: IC50 (nM) HCT116/VM46, resistant human colon cancer cell line, Pgp over-expression.

T1 sequence (P02550 whole entry): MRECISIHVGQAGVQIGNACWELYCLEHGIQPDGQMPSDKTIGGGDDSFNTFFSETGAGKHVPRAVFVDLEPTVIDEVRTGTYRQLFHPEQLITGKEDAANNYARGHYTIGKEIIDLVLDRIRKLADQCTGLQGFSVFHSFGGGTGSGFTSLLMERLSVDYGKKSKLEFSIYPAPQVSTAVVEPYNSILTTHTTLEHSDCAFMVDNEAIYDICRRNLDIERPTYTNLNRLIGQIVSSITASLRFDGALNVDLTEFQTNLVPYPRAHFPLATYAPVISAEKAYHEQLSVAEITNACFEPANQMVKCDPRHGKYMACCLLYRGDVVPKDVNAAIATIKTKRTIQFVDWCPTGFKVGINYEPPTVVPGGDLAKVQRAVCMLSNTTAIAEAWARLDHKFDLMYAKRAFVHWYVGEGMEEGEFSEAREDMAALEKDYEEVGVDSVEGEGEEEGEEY
T1 sequence (P02554 whole entry): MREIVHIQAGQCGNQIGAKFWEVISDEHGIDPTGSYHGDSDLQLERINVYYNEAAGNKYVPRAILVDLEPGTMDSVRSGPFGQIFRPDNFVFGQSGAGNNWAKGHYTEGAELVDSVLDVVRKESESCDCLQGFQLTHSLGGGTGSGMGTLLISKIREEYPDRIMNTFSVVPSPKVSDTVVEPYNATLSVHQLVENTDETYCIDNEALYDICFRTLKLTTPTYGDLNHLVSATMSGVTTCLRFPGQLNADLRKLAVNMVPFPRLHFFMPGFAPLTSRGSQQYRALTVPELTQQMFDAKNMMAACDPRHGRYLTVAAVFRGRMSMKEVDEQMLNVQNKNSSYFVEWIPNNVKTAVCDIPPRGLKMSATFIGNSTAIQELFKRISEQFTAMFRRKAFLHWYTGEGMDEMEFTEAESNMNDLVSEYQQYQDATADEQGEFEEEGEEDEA

With `CC[C@]1(N)C[C@H]2CN(CCc3c([nH]c4ccccc34)[C@@](C(=O)OC)(c3cc4c(cc3OC)N(C)[C@H]3[C@@](O)(C(=O)OC)[C@H](OC(C)=O)[C@]5(CC)C=CCN6CC[C@]43[C@@H]65)C2)C1` [Compound 7, 20′-aminovinblastine], the IC50 was 600 nM in data set [1]; 600 nM in data set [2] (setting [20]); greater than 10000 nM in data set [3] (setting [21]); greater than 10000 nM in [4]; 640 nM in data set [5].
Regarding `CC[C@]1(NC(N)=O)C[C@@H]2CN(CCc3c([nH]c4ccccc34)[C@@](C(=O)OC)(c3cc4c(cc3OC)N(C)[C@H]3[C@@](O)(C(=O)OC)[C@H](OC(C)=O)[C@]5(CC)C=CCN6CC[C@]43[C@@H]65)C2)C1` [Compound 11, reference compound], the IC50 in data set [1] was 7.5 nM; in data set [2] (setting [20]), 7.5 nM; in data set [3], 4400 nM; in [4], 4400 nM; in [5], 40 nM; in data set [6] it was 40 nM.
For the compound `CC[C@]1(NC(N)=S)C[C@@H]2CN(CCc3c([nH]c4ccccc34)[C@@](C(=O)OC)(c3cc4c(cc3OC)N(C)[C@H]3[C@@](O)(C(=O)OC)[C@H](OC(C)=O)[C@]5(CC)C=CCN6CC[C@]43[C@@H]65)C2)C1` [Compound 12], the IC50 in [1] was 7.7 nM; in data set [2] (setting [20]), 7.7 nM; in data set [3] (setting [21]), 2000 nM; in data set [4], 2000 nM; in [5], 55 nM.
Take `CCC1(NC(=O)Nc2ccc(-c3ccccc3)cc2)C[C@H]2CN(CCc3c([nH]c4ccccc34)[C@@](C(=O)OC)(c3cc4c(cc3OC)N(C)[C@H]3C(O)(C(=O)OC)[C@H](OC(C)=O)[C@]5(CC)C=CCN6CC[C@]43[C@@H]65)C2)C1` (stereo partly shown) [Compound 35]: the IC50 turned out to be 6.9 nM in data set [2] (Homo sapiens, HCT-116, read-out: IC50 (nM) HCT116) and 470 nM in data set [3] (Homo sapiens, HCT-116/VM46, read-out: IC50 (nM) HCT116/VM46). Further, on porcine tubulin, the “tubulin binding affinity compared with vinblastine” value is reported as “affinity matching or even slightly exceeding that of vinblastine”. Further, on porcine tubulin (ligand vs [^3H]VBL (1:1), normalized to VLB + [^3H]VLB = 50.0%), the “% ^3H-vinblastine remaining bound” value was found to be 48.5 ± 6.9%.
For the compound `CCC1(NC(=O)N(C)C)CC2CN(CCc3c([nH]c4ccccc34)C(C(=O)OC)(c3cc4c(cc3OC)N(C)C3C(O)(C(=O)OC)C(OC(C)=O)C5(CC)C=CCN6CCC43C65)C2)C1` (stereo not shown) [Compound 39], the IC50 in [2] (setting [20]) was 2.8 nM; in data set [3] (setting [21]), 80 nM; in [6], 5.9 nM. Also, the “fold more potent than vinblastine, HCT116” value in [2] (relative to vinblastine) was found to be 3 fold. Also, in data set [3] (HCT116/VM46 vs HCT116), the “activity difference between sensitive HCT116 and vinblastine-resistant HCT116/VM46” value is listed as 10 fold. In addition, the “% ^3H-vinblastine remaining bound” value at porcine tubulin is on record as 45.1 ± 3.5%. The “tubulin binding affinity compared with vinblastine” value on porcine tubulin was “slightly better affinity than vinblastine”.
On to `CCC1(NC(=O)N2CCc3ccccc3C2)CC2CN(CCc3c([nH]c4ccccc34)C(C(=O)OC)(c3cc4c(cc3OC)N(C)C3C(O)(C(=O)OC)C(OC(C)=O)C5(CC)C=CCN6CCC43C65)C2)C1` (stereo not shown) [Compound 57], for which the IC50 in [7] is 0.52 nM; in [8] it was 1.2 nM; with HCT116 (Colon) it was 0.26 nM; in data set [9], 0.13 nM; in data set [2] (setting [20]), 0.56 nM; in data set [11], 0.19 nM. In addition, the IC50 in data set [12] worked out at 6.6 nM; in data set [13] it was 0.12 nM; in the data set on LNCaP-FGC (Prostate) (read-out: IC50 LNCaP-FGC) it was 0.02 nM; in data set [3] (setting [21]) it was 8.7 nM; in data set [14], 0.16 nM; in data set [15], 2.1 nM. The IC50 in the data set on NCI-H520 (Lung) was 0.14 nM; in [16], 0.55 nM; in [17], 0.13 nM; in data set [18], 0.06 nM; in data set [19], 0.3 nM; in data set [6], 0.62 nM. The “average enhancement over the activity of vinblastine in panel” value in data set [10] (average over panel) was 30 fold. In addition, the “average IC50 value in human tumor cell line panel” value in data set [10] (comparative average) was found to be 0.2 nM. The “tubulin binding affinity compared with vinblastine” value on porcine tubulin is “higher affinity than vinblastine”.
With `CCC1(N=[N+]=[N-])CC2CN(CCc3c([nH]c4ccccc34)C(C(=O)OC)(c3cc4c(cc3OC)N(C)C3C(O)(C(=O)OC)C(OC(C)=O)C5(CC)C=CCN6CCC43C65)C2)C1` (stereo not shown) [Compound N3], the IC50 in data set [1] is 690 nM; in [4], 5500 nM; in [5], 670 nM.
In the case of `CCC1(NC=O)CC2CN(CCc3c([nH]c4ccccc34)C(C(=O)OC)(c3cc4c(cc3OC)N(C)C3C(O)(C(=O)OC)C(OC(C)=O)C5(CC)C=CCN6CCC43C65)C2)C1` (stereo not shown) [NHCHO], the IC50 in data set [1] was 85 nM; in data set [4], 6500 nM; in [5] it was 65 nM.
With `CCC1(NC(=O)C(F)(F)F)CC2CN(CCc3c([nH]c4ccccc34)C(C(=O)OC)(c3cc4c(cc3OC)N(C)C3C(O)(C(=O)OC)C(OC(C)=O)C5(CC)C=CCN6CCC43C65)C2)C1` (stereo not shown) [NHCOCF3], the values for the IC50 in data set [1], in data set [4] and in [5] were 690 nM, 8100 nM and 660 nM, respectively.
In the case of `CCC1(NC(=O)NC(=O)C(Cl)(Cl)Cl)CC2CN(CCc3c([nH]c4ccccc34)C(C(=O)OC)(c3cc4c(cc3OC)N(C)C3C(O)(C(=O)OC)C(OC(C)=O)C5(CC)C=CCN6CCC43C65)C2)C1` (stereo not shown) [NHCONHCOCCl3], the values for the IC50 in [1], in [4] and in data set [5] were 6 nM, 1600 nM and 45 nM, respectively.
With `CCC1(SC#N)CC2CN(CCc3c([nH]c4ccccc34)C(C(=O)OC)(c3cc4c(cc3OC)N(C)C3C(O)(C(=O)OC)C(OC(C)=O)C5(CC)C=CCN6CCC43C65)C2)C1` (stereo not shown) [SCN], the IC50 in [1] is 550 nM; in data set [4] it was 2900 nM; in [5], 560 nM.
As to `CC1(C)CCCC(C)(C)N1[O]` [TEMPO], the IC50 in data set [1] is 3800 nM; in data set [4], 5600 nM; in data set [5], 4000 nM.
As for `CC[C@]1(O)C[C@@H]2CN(CCc3c([nH]c4ccccc34)[C@@](C(=O)OC)(c3cc4c(cc3OC)N(C)[C@H]3[C@@](O)(C(=O)OC)[C@H](OC(C)=O)[C@]5(CC)C=CCN6CC[C@]43[C@@H]65)C2)C1` [Vinblastine (1), Vinblastine, reference compound], the IC50 in data set [7] is 8 nM; in [8] it was 7.9 nM; in data set [9] it was 4 nM; in [11], 4.6 nM; in [12], greater than 110 nM; in [13], 4.6 nM. The IC50 was 5.1 nM with LNCaP-FGC (Prostate) (read-out: IC50 (nM) LNCaP-FGC); 600 nM in data set [3] (setting [21]); 3.8 nM in [14]; greater than 110 nM in data set [15]; 4.5 nM in the data set on NCI-H520 (Lung); 600 nM in data set [4]. The IC50 in data set [16] is 5 nM; in [17] it was 3.5 nM; in [5] it was 6 nM; in [18] it was 2.9 nM; in data set [19], 19.6 nM; in [6], 6 nM. The “% ^3H-vinblastine remaining bound” value at porcine tubulin is 50.0%.
